Values after ≈ are worked out from the molar mass of the structure shown.
Tests used:
[1] = Protein binding in mouse plasma by LC-MS analysis based ultracentrifugation assay; type: ADME, cell-free; conditions: read-out: PPB (converted)
[2] = Cmax in Swiss mouse blood at 50 mg/kg, po via gavage measured up to 24 hrs by UPLC-MS analysis; type: ADME, organism-based; set-up: dose 50 mg/kg, route oral; conditions: in vivo
[3] = Apparent half life in Sprague-Dawley rat at 33 mg/kg, po administered via gavage measured up to 24 hrs by LC-MS analysis; type: ADME, organism-based; conditions: in vivo
Plasmodium falciparum [4] = assay: animal or person; conditions: 3D70087/N9, in Mus musculus, po, 96 h
[5] = simulated gi fluid, pH 6.5
[6] = AUC (0 to infinity) in Swiss mouse blood at 50 mg/kg, po via gavage measured up to 24 hrs by UPLC-MS analysis; type: ADME, organism-based; set-up: dose 50 mg/kg, time infinity, route oral; conditions: in vivo
[7] = target: Potassium voltage-gated channel subfamily A member 5 (Homo sapiens, UniProt P22460); assay: Inhibition of human Kv1.5 by IonWorks patch clamp electrophysiology assay
Potassium voltage-gated channel subfamily A member 5, sequence (P22460 whole entry): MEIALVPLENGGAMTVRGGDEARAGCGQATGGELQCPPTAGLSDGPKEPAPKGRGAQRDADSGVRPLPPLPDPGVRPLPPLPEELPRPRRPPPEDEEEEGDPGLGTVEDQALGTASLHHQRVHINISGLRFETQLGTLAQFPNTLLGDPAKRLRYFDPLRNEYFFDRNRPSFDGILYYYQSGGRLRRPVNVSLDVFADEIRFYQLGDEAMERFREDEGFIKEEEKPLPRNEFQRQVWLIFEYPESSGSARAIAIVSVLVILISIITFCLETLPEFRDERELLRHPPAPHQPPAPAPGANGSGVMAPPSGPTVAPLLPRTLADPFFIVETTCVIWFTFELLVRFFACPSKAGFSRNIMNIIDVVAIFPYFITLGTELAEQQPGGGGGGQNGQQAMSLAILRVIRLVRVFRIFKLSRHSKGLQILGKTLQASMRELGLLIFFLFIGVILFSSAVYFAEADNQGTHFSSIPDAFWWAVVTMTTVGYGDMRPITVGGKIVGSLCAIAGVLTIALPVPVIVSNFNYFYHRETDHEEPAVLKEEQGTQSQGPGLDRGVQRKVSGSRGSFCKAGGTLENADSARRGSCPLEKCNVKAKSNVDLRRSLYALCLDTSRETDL

Plasmodium falciparum [8] = tested on: Plasmodium falciparum
[9] = Cmax in Swiss mouse at 18.3 mg/kg, po via gavage measured up to 24 hrs by UPLC-MS analysis; type: ADME, organism-based; set-up: dose 18.3 mg/kg, route oral; conditions: in vivo
CYP3A4/5 [10] = target: T1, CYP3A4/5 (Homo sapiens, UniProt P08684+P20815); assay: in vitro; conditions: liver microsomes, probe midazolam
[11] = buffer, pH 7.4
Cytochrome P450 2C9 [12] = target: T2, Cytochrome P450 2C9 (Homo sapiens, UniProt P11712); assay: Time-dependent inhibition of CYP2C9 in human liver microsomes using tolbutamide as substrate in absence of NADPH regenerating system by UPLC-MS analysis; type: ADME
T2 sequence (P11712 whole entry): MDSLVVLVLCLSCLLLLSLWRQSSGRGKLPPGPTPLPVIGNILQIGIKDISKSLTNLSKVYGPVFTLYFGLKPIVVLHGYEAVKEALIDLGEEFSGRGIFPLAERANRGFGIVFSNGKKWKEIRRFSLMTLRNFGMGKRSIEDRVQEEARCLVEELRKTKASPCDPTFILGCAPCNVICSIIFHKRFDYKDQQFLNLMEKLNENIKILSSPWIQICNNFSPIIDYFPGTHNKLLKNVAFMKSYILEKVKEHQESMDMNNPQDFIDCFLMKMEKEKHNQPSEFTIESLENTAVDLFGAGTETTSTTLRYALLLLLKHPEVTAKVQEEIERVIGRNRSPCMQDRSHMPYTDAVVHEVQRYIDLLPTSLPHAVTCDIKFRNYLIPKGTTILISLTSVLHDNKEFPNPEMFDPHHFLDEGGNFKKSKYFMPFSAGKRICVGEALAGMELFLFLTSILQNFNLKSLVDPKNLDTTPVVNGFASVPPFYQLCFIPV

[13] = AUC (0 to infinity) in Swiss mouse blood at 18.3 mg/kg, po via gavage measured up to 24 hrs by UPLC-MS analysis; type: ADME, organism-based; set-up: dose 18.3 mg/kg, route oral, time infinity; conditions: in vivo
Albumin [14] = target: T3, Albumin (Homo sapiens, UniProt P02768); assay: Binding affinity to albumin (unknown origin) by chromatographic method; type: ADME; conditions: albumin, read-out: PB (converted)
T3 sequence (P02768 whole entry): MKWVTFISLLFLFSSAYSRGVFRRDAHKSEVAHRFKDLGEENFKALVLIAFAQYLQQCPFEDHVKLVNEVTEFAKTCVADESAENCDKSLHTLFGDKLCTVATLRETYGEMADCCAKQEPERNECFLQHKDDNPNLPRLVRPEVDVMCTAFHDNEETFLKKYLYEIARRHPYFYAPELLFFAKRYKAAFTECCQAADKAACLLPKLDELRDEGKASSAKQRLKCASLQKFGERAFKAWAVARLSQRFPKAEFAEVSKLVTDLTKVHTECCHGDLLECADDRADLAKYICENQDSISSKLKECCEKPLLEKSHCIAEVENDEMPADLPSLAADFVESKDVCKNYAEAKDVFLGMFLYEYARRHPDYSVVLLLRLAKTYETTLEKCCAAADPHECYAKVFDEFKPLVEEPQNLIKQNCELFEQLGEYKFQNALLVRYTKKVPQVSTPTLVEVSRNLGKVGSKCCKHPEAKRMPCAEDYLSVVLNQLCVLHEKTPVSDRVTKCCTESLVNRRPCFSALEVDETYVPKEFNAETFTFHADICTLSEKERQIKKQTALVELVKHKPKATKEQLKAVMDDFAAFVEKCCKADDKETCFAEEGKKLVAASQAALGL

[15] = Oral bioavailability in Swiss mouse at 18.3 mg/kg dosed via gavage measured up to 24 hrs by UPLC-MS analysis; type: ADME, organism-based; conditions: in vivo
[16] = AUC (0 to infinity) in Swiss mouse at […], iv administered as bolus dose measured up to 24 hrs by UPLC-MS analysis; type: ADME, organism-based; set-up: dose 2.8 mg/kg, route intravenous, time infinity; conditions: in vivo
Cytochrome P450 2C9 [17] = target: T2, Cytochrome P450 2C9; assay: Inhibition of CYP2C9 in human liver microsomes using tolbutamide as substrate measured for 10 to 30 mins in presence of NADPH regenerating system by UPLC-MS analysis; type: ADME
Cytochrome P450 1A2 = target: T4, Cytochrome P450 1A2 (Homo sapiens, UniProt P05177); assay: Time-dependent inhibition of CYP1A2 in human liver microsomes using phenacetin as substrate in presence of NADPH regenerating system by UPLC-MS analysis; type: ADME
T4 sequence (P05177 whole entry): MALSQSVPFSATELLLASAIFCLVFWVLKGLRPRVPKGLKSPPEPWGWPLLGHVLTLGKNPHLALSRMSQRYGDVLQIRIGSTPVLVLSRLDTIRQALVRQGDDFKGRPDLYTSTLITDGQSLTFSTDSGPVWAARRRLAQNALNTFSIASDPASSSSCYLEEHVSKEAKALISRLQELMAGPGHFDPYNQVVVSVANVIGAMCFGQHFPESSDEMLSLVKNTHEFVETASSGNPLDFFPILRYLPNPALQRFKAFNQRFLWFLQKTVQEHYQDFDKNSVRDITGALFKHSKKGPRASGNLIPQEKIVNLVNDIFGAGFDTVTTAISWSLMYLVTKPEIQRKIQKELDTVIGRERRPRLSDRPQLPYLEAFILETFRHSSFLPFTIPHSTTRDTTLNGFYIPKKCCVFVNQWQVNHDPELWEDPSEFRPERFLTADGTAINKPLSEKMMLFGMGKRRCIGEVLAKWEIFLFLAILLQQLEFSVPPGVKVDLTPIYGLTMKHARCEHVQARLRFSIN

[18] = AUC (0 to 23 hrs) in NOD-SCID IL2Rgamma null mouse blood infected with Plasmodium falciparum 3D70087/N9 at 10 mg/kg, po qd for 4 days starting from 3 days post infection and measured after 24 hrs post dose by LC-MS/MS analysis; type: ADME, organism-based; set-up: dose 10 mg/kg, time < 23 hr, route oral
[19] = Protein binding in rat plasma by LC-MS analysis based ultracentrifugation assay; type: ADME, cell-free; conditions: read-out: PPB (converted)
HepG2 = assay: Cytotoxicity against human HepG2 cells assessed as reduction in cell viability; type: cell-based
Cytochrome P450 2C19 [20] = target: T5, Cytochrome P450 2C19 (Homo sapiens, UniProt P33261); assay: Time-dependent inhibition of CYP2C19 in human liver microsomes using (S)-mephenytoin as substrate in presence of NADPH regenerating system by UPLC-MS analysis; type: ADME
T5 sequence (P33261 whole entry, the tested form may be a part): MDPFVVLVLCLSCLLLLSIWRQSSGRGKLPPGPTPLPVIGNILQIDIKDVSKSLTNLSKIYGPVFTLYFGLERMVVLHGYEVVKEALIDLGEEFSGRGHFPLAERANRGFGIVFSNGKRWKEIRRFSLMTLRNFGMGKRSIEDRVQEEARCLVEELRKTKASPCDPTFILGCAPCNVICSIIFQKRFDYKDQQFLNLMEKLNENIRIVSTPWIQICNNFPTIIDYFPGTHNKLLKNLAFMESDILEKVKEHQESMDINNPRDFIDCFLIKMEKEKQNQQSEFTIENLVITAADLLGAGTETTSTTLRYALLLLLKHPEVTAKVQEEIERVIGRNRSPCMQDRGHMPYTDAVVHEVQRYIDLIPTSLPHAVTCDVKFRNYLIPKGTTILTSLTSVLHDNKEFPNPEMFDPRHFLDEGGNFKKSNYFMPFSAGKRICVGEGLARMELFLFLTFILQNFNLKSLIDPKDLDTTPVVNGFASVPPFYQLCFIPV

[21] = Clearance in Sprague-Dawley rat plasma at […], iv administered as infusion for 10 mins and measured up to 24 hrs by LC-MS analysis; type: ADME, organism-based; conditions: in vivo
[22] = Oral bioavailability in Sprague-Dawley rat at 33 mg/kg administered via gavage measured up to 24 hrs by LC-MS analysis; type: ADME, organism-based; conditions: in vivo
Albumin [23] = target: T3, Albumin; assay: Binding affinity to albumin (unknown origin) in ALBUMAX medium; type: ADME; conditions: read-out: PB (converted)
[24] = AUC (0 to infinity) in Swiss mouse at 18.3 mg/kg, po via gavage measured up to 24 hrs by UPLC-MS analysis; type: ADME, organism-based; set-up: dose 18.3 mg/kg, time infinity, route oral; conditions: in vivo
CYP3A4/5 [25] = target: T1, CYP3A4/5; assay: in vitro; conditions: liver microsomes, probe testosterone
[26] = Oral bioavailability in Sprague-Dawley rat at 3 mg/kg administered via gavage measured up to 24 hrs by LC-MS analysis; type: ADME, organism-based; conditions: in vivo
Cytochrome P450 2C19 [27] = target: T5, Cytochrome P450 2C19; assay: Time-dependent inhibition of CYP2C19 in human liver microsomes using (S)-mephenytoin as substrate in absence of NADPH regenerating system by UPLC-MS analysis; type: ADME
[28] = AUC (0 to infinity) in Sprague-Dawley rat at 33 mg/kg, po administered via gavage measured up to 24 hrs by LC-MS analysis; type: ADME, organism-based; set-up: dose 33 mg/kg, time infinity, route oral; conditions: in vivo
L1210 = assay: Cytotoxicity against mouse L1210 cells assessed as reduction in cell viability; type: cell-based
[29] = simulated gi fluid, pH 5.8
[30] = Volume of distribution at steady state in Sprague-Dawley rat at […], iv administered as infusion for 10 mins and measured up to 24 hrs by LC-MS analysis; type: ADME, organism-based; conditions: in vivo, read-out: Vdss
[31] = Apparent half life in Sprague-Dawley rat at […], iv administered as infusion for 10 mins and measured up to 24 hrs by LC-MS analysis; type: ADME, organism-based; conditions: in vivo, read-out: t1/2(app) (converted)
[32] = Cmax in Sprague-Dawley rat at 33 mg/kg, po administered via gavage measured up to 24 hrs by LC-MS analysis; type: ADME, organism-based; set-up: dose 33 mg/kg, route oral; conditions: in vivo
[33] = Volume of drug distribution at steady state in Swiss mouse at […], iv administered as bolus dose measured up to 24 hrs by UPLC-MS analysis; type: ADME, organism-based; conditions: in vivo

Cc1c(Cc2ccc(C(F)(F)F)nc2)c[nH]c1C(=O)NC1CC1
fraction unbound [1]: 0.111 | Cmax [2]: 33.8 µM | t1/2(app) [3]: 2.8 h | ED90 (Plasmodium falciparum [4]): 50 mg/kg/day | solubility [5]: 60.1 µg/mL (≈ 186 µM) | AUC [6]: 176 µM·h | EC50 [7]: > 11 µM | fEC50 (Plasmodium falciparum [8]): 0.0077 µM | Cmax [9]: 8.4 µM | IC50 (CYP3A4/5 [10]): 5.5 µM | solubility [11]: 45.6 µg/mL (≈ 141 µM) | TDI (Cytochrome P450 2C9 [12]): Not Active | AUC [13]: 44.5 µM·h | fraction unbound (Albumin [14]): 0.238 | F [15]: > 100% | AUC [16]: 5.6 µM·h | IC50 (Cytochrome P450 2C9 [17]): > 20 µM | TDI (Cytochrome P450 1A2): Not Active | AUC at 23 h [18]: 2.1 µM·h | fraction unbound [19]: 0.118 | CC50 (HepG2): > 50 µM | TDI (Cytochrome P450 2C19 [20]): Not Active | clearance [21]: 28.6 mL/min/kg | F [22]: > 100% | fraction unbound (Albumin [23]): 0.482 | AUC [24]: 55.6 µM·h | IC50 (CYP3A4/5 [25]): > 20 µM | F [26]: 91% | TDI (Cytochrome P450 2C19 [27]): Not Active | AUC [28]: 204 µM·h | CC50 (L1210): > 50 µM | solubility [29]: 115 µg/mL (≈ 356 µM) | Vd [30]: 4.7 L/kg | half-life [31]: 14.6 h | Cmax [32]: 27 µM | Vdss [33]: 1.2 L/kg

— ChEMBL document CHEMBL4602703, “Lead Optimization of a Pyrrole-Based Dihydroorotate Dehydrogenase Inhibitor Series for the Treatment of Malaria” (J Med Chem, 2020)
